Measured values: PubChem BioAssay (NCI)
Several values for one entry are separate records, joined by “and”; a condition that tells them apart may be missing. Identical values can stand only once.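 In this assay, cells in 96-well plates receive the compound at five concentrations for 48 hours. Endpoints are linearly interpolated between the surrounding concentrations. The concentration for 50% growth inhibition is given as GI50. TGI marks complete inhibition of growth.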

Assays:
Assay in all cases: growth of human tumour cells (NCI), 48 h
SNB-19 CNS = system: SNB-19 CNS
CAKI-1 renal = system: CAKI-1 renal
UO-31 renal = system: UO-31 renal
KM12 colon = system: KM12 colon
OVCAR-5 ovarian = system: OVCAR-5 ovarian
UACC-62 melanoma = system: UACC-62 melanoma
RXF 393 renal = system: RXF 393 renal
MDA-MB-231 breast = system: MDA-MB-231 breast
SNB-75 CNS = system: SNB-75 CNS
ACHN renal = system: ACHN renal

SMILES	GI50 (SNB-19 CNS)	TGI (SNB-19 CNS)	GI50 (CAKI-1 renal)	TGI (CAKI-1 renal)	GI50 (UO-31 renal)	TGI (UO-31 renal)	GI50 (KM12 colon)	TGI (KM12 colon)	GI50 (OVCAR-5 ovarian)	TGI (OVCAR-5 ovarian)	GI50 (UACC-62 melanoma)	TGI (UACC-62 melanoma)	GI50 (RXF 393 renal)	TGI (RXF 393 renal)	GI50 (MDA-MB-231 breast)	TGI (MDA-MB-231 breast)	GI50 (SNB-75 CNS)	TGI (SNB-75 CNS)	GI50 (ACHN renal)	TGI (ACHN renal)
CO[C@H](C(=O)[C@@H](O)[C@@H](C)O)[C@@H]1Cc2cc3cc(O[C@H]4C[C@@H](O[C@H]5C[C@@H](O)[C@H](O)C(C)O5)[C@H](O)C(C)O4)c(C)c(O)c3c(O)c2C(=O)[C@H]1O[C@H]1C[C@@H](O[C@H]2C[C@@H](O[C@H]3C[C@@H](OC)[C@H](O)C(C)O3)[C@@H](O)C(C)O2)C(O)(O)C(C)O1 (some centres undefined)	0.0971 µM	> 25 µM	2.89 µM	> 17.3 µM	0.209 µM	2.84 µM	0.102 µM	> 25 µM	0.376 µM	> 25 µM	0.00601 µM	0.0945 µM	0.0525 µM	0.306 µM	0.794 µM	24.5 µM	0.148 µM	3.53 µM	0.191 µM	> 25 µM
CC(=O)C1=C(O)C=C2Oc3c(C(=O)/C=C/c4cc(C(F)(F)F)cc(C(F)(F)F)c4)c(O)c(C)c(O)c3[C@]2(C)C1=O	0.674 µM	4.89 µM	0.531 µM	4.83 µM	0.438 µM	2.05 µM	0.658 µM	3.23 µM	0.757 µM	4.46 µM	0.436 µM	1.27 µM	0.673 µM	3.08 µM	0.525 µM	1.84 µM	2.1 µM	4.91 µM	0.552 µM	2.26 µM
CNC(=O)c1cc(COc2nnc(Nc3ccc(Cl)cc3)c3ccoc23)ccn1	2.88 µM and > 10 µM	21.4 µM and > 10 µM	3.46 µM and > 10 µM	19.7 µM and > 10 µM	3.3 µM and 4.57 µM	15 µM and > 10 µM	21.5 µM and > 10 µM	80.9 µM and > 10 µM	12.3 µM and > 10 µM	38.9 µM and > 10 µM	6.3 µM and > 10 µM	30.3 µM and > 10 µM	2.99 µM and 9.09 µM	11 µM and > 10 µM	3.43 µM and > 10 µM	13.8 µM and > 10 µM	0.769 µM and 2.78 µM	4.71 µM and > 10 µM	3.86 µM and 7.18 µM	15.4 µM and > 10 µM
COc1ccc(C#Cc2ccccc2C#CCCCCO)cc1	21.4 µM	36.9 µM	22.3 µM	40.3 µM	21.2 µM	39.6 µM	17.7 µM	33.4 µM	18.7 µM	37.6 µM	15.9 µM	29.8 µM	16 µM	33.6 µM	17.3 µM	32.2 µM	18.4 µM	38.9 µM	21.7 µM	45 µM
C(=Nc1ccccc1)C1CCCC[N-]1.C(=Nc1ccccc1)C1CCCC[N-]1.[Cu+2].[O-][Cl+3]([O-])([O-])O (centres undefined)	9.94 µM	38.4 µM	3.96 µM	16.6 µM	12.6 µM	> 94.3 µM	1.07 µM	22.4 µM	14.8 µM	31.6 µM	5 µM	22.8 µM	38.2 µM	> 100 µM	9.75 µM	28.1 µM	23.6 µM	59 µM	1.45 µM	12.3 µM
COc1cccc2c1C(=O)c1c(O)c3c(c(O)c1C2=O)CC(O)(C(C)=O)CC3OC1CC(N)C(O)C(C)O1 (centres undefined)	0.0198 µg/mL	2.11 µg/mL	–	0.015 µg/mL	0.26 µg/mL	5.46 µg/mL	0.0445 µg/mL	0.776 µg/mL	0.0674 µg/mL	3.46 µg/mL	0.0157 µg/mL	0.0734 µg/mL	0.263 µg/mL	1.48 µg/mL	0.0409 µg/mL	0.59 µg/mL	0.0256 µg/mL	0.138 µg/mL	0.0176 µg/mL	0.1 µg/mL
Cc1nc2ccc(CN(C)c3ccc(C(=O)N[C@@H](CCC(=O)O)C(=O)O)s3)cc2c(=O)[nH]1	–	> 100 µM	–	> 100 µM	< 0.01 µM	> 100 µM	–	> 100 µM	–	> 100 µM	–	> 100 µM	> 21.7 µM	> 100 µM	–	> 100 µM	–	> 100 µM	–	> 100 µM
O=C(/C=C/c1ccc(B(O)O)cc1)/C=C/c1ccc(B(O)O)cc1	6.09 µM	21.2 µM	6.22 µM	19.2 µM	1.91 µM	4.73 µM	1.66 µM	3.23 µM	4.4 µM	20.3 µM	1.73 µM	4.41 µM	1.7 µM	3.45 µM	3.08 µM	10.8 µM	3.48 µM	14.9 µM	3.66 µM	13.8 µM
Cc1ccc(C(=O)N(CCCN)[C@@H](c2nc3cc(Cl)ccc3c(=O)n2Cc2ccccc2)C(C)C)cc1	< 0.01 µM	2.12 µM and 1.9 µM	–	2.33 µM and 1.94 µM	1.12 µM and 1.02 µM	2.58 µM and 2.27 µM	< 0.01 µM	1.29 µM and 1.44 µM	< 0.01 µM	2.02 µM and 1.74 µM	< 0.01 µM	1.91 µM and 1.57 µM	< 0.01 µM	–	< 0.01 µM	0.233 µM and 0.172 µM	< 0.01 µM	1.56 µM and 1.37 µM	0.798 µM	2.38 µM and 2.15 µM
Cc1ccc(NCCCN2CCN(CCCNc3ccc(C)c4sc5ccccc5c(=O)c34)CC2)c2c(=O)c3ccccc3sc12	–	> 100 µM	–	> 100 µM	–	> 100 µM	–	> 100 µM	–	> 100 µM	–	> 100 µM	–	> 100 µM	–	> 100 µM	–	57.1 µM	–	> 100 µM
Cc1nc2sccn2c1/C=C1/C(=O)Nc2ccccc21	> 44 µM	> 100 µM	2.98 µM	> 100 µM	18.7 µM	> 100 µM	0.349 µM	> 100 µM	38.3 µM	> 100 µM	2.52 µM	21.2 µM	19.7 µM	> 80.9 µM	4.53 µM	> 82.5 µM	17.7 µM	> 74.2 µM	8.29 µM	> 100 µM
O=[N+]([O-])c1ccc(Nc2ccccc2-c2ccccc2)c2nonc12	14.5 µM	32.3 µM	12.3 µM	50.2 µM	8.14 µM	29.9 µM	13.9 µM	32.5 µM	22.4 µM	62.9 µM	4.44 µM	18 µM	13.7 µM	28.7 µM	14.5 µM	31.2 µM	13.6 µM	36.6 µM	20.8 µM	87.5 µM
CCCN(CCC)CCCNCc1cc(I)cc(C)c1O	18.2 µM	40.8 µM	14.6 µM	30.6 µM	17.2 µM	53.1 µM	15 µM	30 µM	18.5 µM	43.7 µM	5.54 µM	18.6 µM	9.91 µM	23.2 µM	14.5 µM	28.5 µM	14.6 µM	29 µM	17.1 µM	34.8 µM
